Reference: patent US9045525B2, “Amyloid β-protein-specific production-inhibiting polypeptide” (THE DOSHISHA, priority 2012, dated 2015)
Entries after “also recorded” stand apart in the source; their conditions may differ.

Columns and labels:
[1] = target: β-secretase against APP (APP-EQ-FLAG) (Homo sapiens, UniProt P05067); assay: β-Secretase activity inhibition experiment in vitro, APP-EQ-FLAG substrate; assay type: biochemical; settings: polypeptide 50 μM, 4 hours, 37° C., Western blotting
Protocol: A solution containing the polypeptide having APP (APP-EQ-FLAG: SEQ ID NO: 18) as shown in FIG. 5(A) was prepared in such a manner that its final concentration was 50 nM.
To this solution, 9-7 polypeptide, 6-5 polypeptide, #1 polypeptide, #2 polypeptide, #3 polypeptide, #4 polypeptide, #5 polypeptide, #6 polypeptide, #7 polypeptide, #8 polypeptide, #9 polypeptide, and #10 polypeptide were added in such a manner that each solution had the final concentration of 50 μM, followed by reacting with 50 μL β-secretase (0.02 U/μL) for 4 hours. The reaction temperature was 37° C. As a negative control experiment, DMSO was used in place of the 12 types of polypeptides mentioned above.
After completion of the reaction, each sample was subjected to Western blotting using a monoclonal antibody (82E-1) that specifically recognizes the N terminal of APP-EQ-FLAG as shown in FIG. 5(A). Thereafter, the amount of Aβ33-FLAG protein separated by β-secretase was measured.
An experiment was conducted in the same manner as Experimental Example 4 described above except that S4 and #4 polypeptides were used as the polypeptide and the amounts of these polypeptides added were adjusted so that the final concentrations were 1, 5, 10, 20, 50, and 100 μM.

[2] = test system: CHO-K1 cells (7WD10 cells) that stably expressed APP protein; assay: Aβ protein production inhibition experiment in 7WD10 cells (sAPPβ, βCTF, Aβ); assay type: cell-based
Protocol: (§1) An experiment was conducted wherein #1, #2, and #4 polypeptides were reacted with CHO-K1 cells (7WD10 cells) that stably expressed APP protein and transiently expressed Notch to confirm the production of Aβ protein and cleavage of Notch protein.

[3] = test system: Notch transiently expressed in CHO-K1 cells (7WD10 cells); assay: Cleavage of Notch protein (NICD) in 7WD10 cells; assay type: cell-based; settings: for NICD in the cell lysate: polypeptide 25 or 50 μM; for abundance of the NICD in the cell lysate: polypeptide 1, 5, 10, 20, and 50 μM
Protocol: as §1

Neuro 2A cells (N2A) = assay: Mouse Aβ production inhibition experiment, Neuro 2A cells; assay type: cell-based; settings: polypeptide 20 μM, Neuro2A cells expressing mouse-type APP, anti-mouse Aβ antibody Western blotting
Protocol: (§2) #1, #2, and #4 polypeptides were added to the culture solutions of CHO-K1 cells and Neuro 2A cells (N2A) in such a manner that the final concentration was 20 μM. As a control, L685458 (i.e., a γ-secretase inhibitor) and DMSO were added thereto in such a manner that the final concentration was 20 μM.
(§3) Thereafter, Aβ contained in the cell culture medium was identified by using a Western-blotting method with an antibody (anti-mouse Aβ antibody) that recognizes Aβ. […] In the figure, L indicates L685458, which is a γ-secretase inhibitor (final concentration of 1 μM).

CHO-K1 cells = assay: Mouse Aβ production inhibition experiment, CHO-K1 cells; assay type: cell-based; settings: polypeptide 20 μM, CHO-K1 cells expressing mouse-type APP, anti-mouse Aβ antibody Western blotting
Protocol: as §2, §3

[4] = target: γ-secretase against βCTF (C99-FLAG) (Homo sapiens, UniProt P05067); assay: γ-Secretase activity inhibition experiment in vitro, C99-FLAG substrate; assay type: biochemical; settings: for cleavage activity of γ-secretase against βCTF (Aβ40 from C99-FLAG): polypeptide 50 μM, 4 hours, 37° C., Western blotting
Protocol: (§4) A polypeptide having βCTF (C99-FLAG: SEQ ID NO: 16) and mouse-derived Notch protein having a FLAG peptide at the C-terminal side (modification of NCBI Accession No. Q01705.2; SEQ ID NO: 17; hereunder referred to as “Notch”) shown in FIG. 2(A) were each made into a solution having a final concentration of 50 nM.
(§5) To these solutions, 9-7 polypeptide, 6-5 polypeptide, #1 polypeptide, #2 polypeptide, #3 polypeptide, and #4 polypeptide were added in such a manner that the final concentrations were 50 μM, followed by reacting with 50 μL of CHAPSO-solubilized membrane fraction (γ-secretase-containing fraction) for 4 hours. The reaction temperature was 37° C. As a negative control experiment, DMSO was used in place of the six types of polypeptides described above.
(§6) Each sample after completion of the reaction was measured in the following manner. As shown in FIG. 2(A), a sample using C99-FLAG was subjected to Western blotting using a monoclonal antibody (82E-1) that specifically recognizes the N terminal of C99-FLAG, and the amount of Aβ40 protein produced by the cleavarage by γ-secretase was measured. In contrast, the reaction sample using Notch-FLAG was subjected to Western blotting using an anti-FLAG monoclonal antibody, and the amount of NICD produced to the separete by γ-secretase was also measured. FIG. 2(B) and FIG. 2(C) show the results.
(§7) An experiment was conducted in the same manner as in Experimental Example 1 described above, except that only #1 polypeptide was used and the amount of #1 polypeptide was selected so that the final concentrations were 0.5, 1, 5, 10, 20, and 50 μM.
(§8) An experiment was conducted in the same manner as in Experimental Example 1 described above, except that S4 polypeptide was used as the polypeptide, and each addition amount was set in such a manner that the final concentrations were 1, 5, 10, 20, and 50 μM. In this Experimental Example, #4 polypeptide was added in such a manner that the final result was 50 μM.

[5] = target: γ-secretase against Notch (Mus musculus, UniProt Q01705, V1997L); assay: γ-Secretase activity inhibition experiment in vitro, Notch-FLAG substrate; assay type: biochemical
Protocol: as §4, §5, §6, §7, §8

[6] = reported in NPL 1; cited from earlier work
[7] = polypeptide 1, 5, 10, 20, and 50 μM
[8] = polypeptide 0.5, 1, 5, 10, 20, and 50 μM

β-secretase against APP (APP-EQ-FLAG), sequence (P05067 with tags, fused parts or gaps): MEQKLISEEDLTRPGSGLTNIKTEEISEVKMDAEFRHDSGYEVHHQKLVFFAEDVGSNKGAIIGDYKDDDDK
γ-secretase against Notch, sequence (Q01705 with tags, fused parts or gaps V1997L): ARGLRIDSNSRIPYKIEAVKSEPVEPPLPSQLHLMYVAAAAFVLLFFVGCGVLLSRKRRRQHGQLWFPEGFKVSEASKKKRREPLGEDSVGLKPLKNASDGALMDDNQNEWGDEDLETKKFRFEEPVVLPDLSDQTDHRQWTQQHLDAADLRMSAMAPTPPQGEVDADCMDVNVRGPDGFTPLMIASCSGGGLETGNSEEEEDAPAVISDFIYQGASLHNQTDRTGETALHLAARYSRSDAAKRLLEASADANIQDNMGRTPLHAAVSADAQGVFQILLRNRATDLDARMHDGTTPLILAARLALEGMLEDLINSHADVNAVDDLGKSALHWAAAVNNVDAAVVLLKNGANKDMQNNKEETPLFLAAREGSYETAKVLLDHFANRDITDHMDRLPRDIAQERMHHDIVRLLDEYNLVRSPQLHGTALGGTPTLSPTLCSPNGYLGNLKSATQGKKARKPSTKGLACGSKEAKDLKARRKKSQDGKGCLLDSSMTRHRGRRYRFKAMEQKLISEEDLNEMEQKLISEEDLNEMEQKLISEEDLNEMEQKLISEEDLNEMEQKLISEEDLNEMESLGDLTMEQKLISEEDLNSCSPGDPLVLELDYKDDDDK
γ-secretase against βCTF (C99-FLAG), sequence (P05067 with tags, fused parts or gaps): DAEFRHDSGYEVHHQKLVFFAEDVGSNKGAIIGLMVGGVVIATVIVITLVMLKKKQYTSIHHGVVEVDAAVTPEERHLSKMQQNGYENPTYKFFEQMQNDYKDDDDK

MGRVNCDCYCIGHYCYCYYCHNI (Ac-MGRVNCDCYCIGHYCYCYYCHNI-NH2; cysteine pairing not given here) [#8]
cleavage activity of β-secretase against APP (Aβ33-FLAG) [1]: inhibit the cleavage activity of β-secretase against APP more intensely

MGLISCDCYCDSTACFCYSCTDF (Ac-MGLISCDCYCDSTACFCYSCTDF-NH2; cysteine pairing not given here) [#3]
cleavage activity of β-secretase against APP (Aβ33-FLAG) [1]: inhibit the cleavage activity of β-secretase against APP more intensely

FRBGWVYTYTV (FRXGWVYTYTV; HELM PEPTIDE1{[ac].F.R.[O=C([C@H](Cc1ccc(-c2ccccc2)cc1)N[*:1])[*:2]].G.W.V.Y.T.Y.T.V.[am]}$$$$V2.0; SMILES CC(=O)N[C@@H](Cc1ccccc1)C(=O)N[C@@H](CCCNC(=N)N)C(=O)N[C@@H](Cc1ccc(-c2ccccc2)cc1)C(=O)NCC(=O)N[C@@H](Cc1c[nH]c2ccccc12)C(=O)N[C@H](C(=O)N[C@@H](Cc1ccc(O)cc1)C(=O)N[C@H](C(=O)N[C@@H](Cc1ccc(O)cc1)C(=O)N[C@H](C(=O)N[C@H](C(N)=O)C(C)C)[C@@H](C)O)[C@@H](C)O)C(C)C) [S2, B is L-4,4′-biphenylalanine (Bph) residue]
Aβ protein in the cell culture medium ([2]; polypeptide final concentration of 50 μM): exhibited the Aβ protein production inhibition effect almost to the same level as #4 polypeptide and S4 polypeptide
NICD in the cell lysate [3]: did not have any influence on NICD

MPLSICDCYCISTICYCYFCVHR (Ac-MPLSICDCYCISTICYCYFCVHR-NH2; cysteine pairing not given here) [#9]
cleavage activity of β-secretase against APP (Aβ33-FLAG) [1]: inhibit the cleavage activity of β-secretase against APP more intensely

CC(C)C[C@H](NC(=O)[C@H](Cc1ccccc1)C[C@@H](O)[C@H](Cc1ccccc1)NC(=O)OC(C)(C)C)C(=O)N[C@@H](Cc1ccccc1)C(N)=O [L685458, reference compound]
Aβ protein in the cell culture medium (released Aβ) ([2]; L685458 1 μM): decreased
Aβ protein in the cell lysate (intracellular Aβ) ([2]; L685458 1 μM): decrease in βCTF (C99) and Aβ protein was also observed
sAPP in the cell lysate ([2]; L685458 1 μM): such a phenomenon was not observed
βCTF (C99) in the cell lysate ([2]; L685458 1 μM): decrease in βCTF (C99) and Aβ protein was also observed
amount of NICD in the cell lysate ([3]; L685458 1 μM): the amount of NICD was decreased

MLICDCYCDPRSCICGSCTLV (Ac-MLICDCYCDPRSCICGSCTLV-NH2; cysteine pairing not given here) [L13]
Aβ protein in the cell culture medium ([2]; polypeptide 25 or 50 μM): did not inhibit the production of Aβ
NICD in the cell lysate [3]: did not have any affect on NICD

MVPVVCDCYCFLSVCFCYSCYIT (Ac-MVPVVCDCYCFLSVCFCYSCYIT-NH2; cysteine pairing not given here) [#5]
cleavage activity of β-secretase against APP (Aβ33-FLAG) [1]: inhibit the cleavage activity of β-secretase against APP more intensely

MDTVICDCYCDNYVCFCYSCSHV (Ac-MDTVICDCYCDNYVCFCYSCSHV-NH2; cysteine pairing not given here) [#2]
production of Aβ in the culture medium (Neuro 2A cells (N2A)): the production of Aβ in the culture medium was reduced
Aβ protein in the cell culture medium (released Aβ) [2, 7]: decreased depending on the concentration
Aβ protein in the cell lysate (intracellular Aβ) [2, 7]: no longer present in a manner dependent on the final concentration
sAPP in the cell lysate [2, 7]: no longer present in a manner dependent on the final concentration
βCTF (C99) in the cell lysate [2, 7]: no longer present in a manner dependent on the final concentration
production of Aβ in the culture medium (CHO-K1 cells): the production of Aβ in the culture medium was reduced
cleavage activity of γ-secretase against βCTF (Aβ40 from C99-FLAG) [4]: inhibited more cleavage activity of γ-secretase against βCTF
cleavage activity of β-secretase against APP (Aβ33-FLAG) [1]: inhibit the cleavage activity of β-secretase against APP more intensely
abundance of the NICD in the cell lysate [3]: not decreased

MSIRVCDCYCHGDLCFCYSCINS (Ac-MSIRVCDCYCHGDLCFCYSCINS-NH2; cysteine pairing not given here) [#1]
production of Aβ in the culture medium (Neuro 2A cells (N2A)): the production of Aβ in the culture medium was reduced
Aβ protein in the cell culture medium (released Aβ) [2, 7]: decreased depending on the concentration
Aβ protein in the cell lysate (intracellular Aβ) [2, 7]: no longer present in a manner dependent on the final concentration
sAPP in the cell lysate [2, 7]: no longer present in a manner dependent on the final concentration
βCTF (C99) in the cell lysate [2, 7]: no longer present in a manner dependent on the final concentration
production of Aβ in the culture medium (CHO-K1 cells): the production of Aβ in the culture medium was reduced
cleavage activity of γ-secretase against βCTF (Aβ40 from C99-FLAG) [4]: inhibited more cleavage activity of γ-secretase against βCTF; also recorded: inhibited the cleavage activity of γ-secretase against Aβ protein
cleavage activity of γ-secretase against βCTF [4, 8]: more intensively inhibits the cleavage activity of γ-secretase against βCTF in a concentration-dependent manner; also recorded: inhibited the cleavage activity of γ-secretase against βCTF in a concentration-dependent manner
cleavage activity of β-secretase against APP (Aβ33-FLAG) [1]: inhibit the cleavage activity of β-secretase against APP more intensely
abundance of the NICD in the cell lysate [3]: not decreased
cleavage activity of γ-secretase against Notch (NICD) ([5]; polypeptide 50 μM, 4 hours, 37° C., Western blotting): did not inhibit the cleavage activity against Notch
cleavage activity of γ-secretase against Notch (NICD) [5, 8]: did not inhibit the cleavage activity of γ-secretase against Notch

C[C@H](NC(=O)[C@@H](O)c1cc(F)cc(F)c1)C(=O)N[C@@H]1C(=O)N(C)c2ccccc2-c2ccccc21 [LY-411,575]
effect on the thymus [6]: induces atrophy of the thymus
number of mature B cells in the spleen [6]: reduces the number of mature B cells in the spleen

MLYTSCDCYCDAFSCFCYSCGPY (Ac-MLYTSCDCYCDAFSCFCYSCGPY-NH2; cysteine pairing not given here) [#6]
cleavage activity of β-secretase against APP (Aβ33-FLAG) [1]: inhibit the cleavage activity of β-secretase against APP more intensely

MPTVYCDCYCAYNACYCYYCRSD (Ac-MPTVYCDCYCAYNACYCYYCRSD-NH2; cysteine pairing not given here) [#10]
cleavage activity of β-secretase against APP (Aβ33-FLAG) [1]: inhibit the cleavage activity of β-secretase against APP more intensely
